How the values were obtained:
[1] = MTL in tablet form; cited from earlier work
plasma proteins = settings: cited from earlier work
[2] = Clinical study: plasma pharmacokinetics, film vs Singulair tablet; type: in vivo; settings: human, oral, 10 mg, clinical trials of the film, read-out: Tmax of plasma levels
Procedure: We have performed a clinical study of our product to determine the pharmacokinetics of the API loaded into this pharmaceutical platform. […] Singulair® is the marketed formulation of MTL, commonly prescribed for asthma sufferers. It consists of a 10 mg loaded API tablet. The Cmax and Tmax values are listed below, see Table 2. […] These higher values for our films means that we could load less API into the film product and achieve the same Cmax/AUC as the Singulair® reference product. The major difference between the disclosed Intelgenx prototype and Singulair® is the physical state of the MTL once it reaches the stomach. In the Singulair® product, the MTL reaches the stomach in a compressed solid state and thus must solubilize in the stomach under unfavorable conditions. […] The MTL is then transferred to the small intestine via the pylori. Since the MTL is already present as a suspended precipitate, the MTL may more easily reach the small intestine through the leaking pylori. It is well known that the pylori is not leak proof and allows some liquid to flow through even in its closed position. […] In particular, the chewable dosage form is about 1.17 times more bioavailable than the tablet when administered in a fasting subject (compared using available bioavailability date shown in Table 2). […]

[3] = rats dosed with radiolabeled MTL; cited from earlier work

## CC(C)(O)c1ccccc1CC[C@@H](SCC1(CC(=O)O)CC1)c1cccc(/C=C/c2ccc3ccc(Cl)cc3n2)c1 [MTL, Montelukast]
[1]
  Time to maximum concentrations in blood stream: 2 to 4 h
Plasma proteins
  Bound to plasma proteins: more than 99%
[2]
  Tmax: 2 to 4 h
[3]
  Distribution across the blood-brain barrier: minimal distribution
